The source made the active and inactive calls.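 How the source made its calls: active means compounds giving half or more protection of infected cells from virus-caused growth loss, again on retest; inactive means the rest.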
System: CEM cells HIV-1 protection, formazan growth assay
Assay: NCI AIDS Antiviral Assay
Settings: for IC50: measured here: growth of uninfected CEM cells
Summary of the method: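 Human CEM cells, uninfected and HIV-1-infected, received five drug concentrations, and growth was read by soluble formazan assay. Compounds giving at least 50% protection were retested; reproducible 100% protection defined confirmed active.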

Compound | EC50 [µM] | IC50 [µM] | outcome
CC#CC(OCC)(OCC)OCC | > 1350 | > 1350 | –
O=C(CCC(=O)C1CCC/C1=N/O)Nc1ccc(Cl)cc1 (centres undefined) | > 302 | 1.12 | –
O=C(N/N=C/c1cc(S(=O)(=O)O)c2cccnc2c1O)C(=O)N/N=C/c1cc(S(=O)(=O)O)c2cccnc2c1O | > 200 | 41.7 | –
Nc1cccc2nnccc12 | > 200 | > 200 | –
c1ccc2c3[nH]c(c2c1)=Nc1ccc(cc1)-c1nc2cc(ccc2o1)N=c1[nH]c(c2ccccc12)=Nc1ccc2nc(oc2c1)-c1ccc(cc1)N=3 | > 200 | 40.7 | –
NCCNCCCCCCCCCCCCOS(=O)(=O)O | > 112 | > 112 | –
O=C1/C(=C/c2ccccc2)CCC/C1=C\c1ccc(O)c(CN2CCCCC2)c1 | > 200 | 1.17 | –
c1cc(C[N+]23CN4CN(CN(C4)C2)C3)cs1 | – | – | inactive
COc1cc2c(c3c1C(=O)[C@H](C)[C@@H](C)O3)C=CC(C)(C)O2 | > 200 | 50.1 | –
Cc1ncc([N+](=O)[O-])n1CCNS(=O)(=O)CCCn1ncnc1[N+](=O)[O-] | > 200 | > 200 | –
NC(=O)c1c([N+](=O)[O-])ncn1C1OC(CO)C(F)C1O (centres undefined) | > 200 | > 200 | –
CC(=O)c1ccc2c(c1)N(CCCN(C)C)c1ccccc1S2 | > 200 | 34.7 | –
COc1ccc2c(c1O)-c1c(O)cccc1CCN(C)CC2 | > 200 | > 200 | –
CC(=O)OC1CC[C@@]2(C)C(=CC[C@@H]3[C@@H]2CC[C@]2(C)Nc4c(cnn4-c4ccc(F)cc4)C[C@@H]32)C1 (some centres undefined) | > 10 | > 10 | –
COc1ccc(-c2noc(=O)c3ccccc23)cc1 | – | – | inactive
CCOC(=O)C(=O)/C(=C/n1c(=S)[nH]c2cc(C)ccc21)C(=O)OCC | > 200 | > 200 | –
CCOC(=O)C1(Br)C(c2ccccc2)NC(=O)NC1(C)Br (centres undefined) | > 85.1 | > 85.1 | –
O=c1[nH]c(N/N=C\C(=N/Nc2nc3ccccc3c(=O)[nH]2)C(O)C(O)C(O)CO)nc2ccccc12 (centres undefined) | > 200 | > 200 | –
COc1ccccc1-c1csc(CCC(N)C(=O)O)n1 (centres undefined) | – | – | inactive
Brc1ccc(-c2cnc3nc4[nH]c5ccccc5c4nn23)cc1 | > 200 | 123 | –
O=C(NNC(=S)NCc1ccccc1)c1csc(NC(=S)NC2CCCCC2)n1 | > 200 | 57.5 | –
Cn1cnc2c1S(=O)(=O)NC(=S)N2 | > 1150 | > 1150 | –

Compound | EC50 [µM] | IC50 [µM] | outcome
C=C1CC(Cn2cc(Br)c(=O)[nH]c2=O)(c2ccc(Br)cc2)OC1=O (centres undefined) | > 20 | 0.759 | –
COc1ccc(N2C(=O)/C(=C/c3ccc(N(CCC#N)CCC#N)cc3)N=C2c2ccccc2)c(OC)c1 | > 200 | 50.1 | –
CC1=NOC/C1=N\Nc1ccc(C(C)=NC2C3CC4CC(C3)CC2C4)cc1 (centres undefined) | > 27.5 | > 27.5 | –
N#CC1(C#N)C(=O)c2ccncc2C1=O | > 200 | > 200 | –
OC[C@@H](O)[C@H]1NC[C@@H](O)[C@H]1O | > 200 | > 200 | –
O=C(c1ccc(O)cc1O)C1C(c2ccc(O)cc2)OC(c2ccc(O)cc2)C1C(=O)c1ccc(O)cc1O (centres undefined) | – | – | inactive
COC(=O)[C@@H]1CC2(CCOCc3ccccc3)C=CCN3CC[C@@]1(c1ccccc1NC(=O)C(C)(C)C)C32 (some centres undefined) | > 126 | > 126 | –
O=C(Cc1ccccc1)NN1C(=O)/C(=C\c2cccc([N+](=O)[O-])c2)SC1=Nc1ccccc1 | > 56.2 | > 56.2 | –
N#CCCN(CCN(CCN(C(=O)Nc1ccccc1)c1ccccc1)C(=O)Nc1ccccc1)C(=O)Nc1ccccc1 | > 200 | 9.33 | –
CC(C)[C@@H](C)[C@@]1(C)C[C@@H]1[C@@H](C)[C@H]1CC[C@@H]([C@@H]2CC=C3C[C@@H](O)CC[C@]3(C)C2=O)[C@]1(C)CCO | > 200 | 8.51 | –
C1=CC2C(C3CN(c4ccccc4)N=C13)C1C3C4C=CC21C=CC43 (centres undefined) | > 200 | > 200 | –
Cc1ccc(NC(=O)/C(Cc2cc(=O)oc3cc(O)ccc23)=N\NC(C)(C)C)cc1C | > 17 | > 17 | –
Cn1cc(C(=O)c2ccccc2)c2ccccc2c1=O | – | – | inactive
O=C1Nc2ccccc2/C1=N\[O-].O=C1Nc2ccccc2/C1=N\[O-].[Cu+2] | > 200 | > 200 | –
CC(=O)OC1CC2C(C)(C)CCC[C@]2(C=O)C2=C1C(O)=C(C(C)C)C(=O)C2=O (some centres undefined) | – | – | inactive
Cc1ccc(NC(=O)CCCC(=O)CC(=O)c2ccc(Br)cc2)cc1 | > 309 | > 309 | –
Cc1cc(N(CCC#N)CCC#N)ccc1/C=C1\N=C(c2cc([N+](=O)[O-])ccc2Cl)N(c2cccc(Cl)c2)C1=O | > 12.6 | > 12.6 | –
Cc1nn(C(=O)c2c(O)cccc2Br)c(C)c1N=Nc1ccccc1 | – | – | inactive
Cn1ccc2c(c1=O)C(=O)OC2(C)C | > 200 | > 200 | –
Cc1ccc(S(=O)(=O)OC2CSS(=O)CC2OS(=O)(=O)c2ccc(C)cc2)cc1 (centres undefined) | > 200 | 9.33 | –
CN(C)/C=N\c1nn[nH]n1 | > 200 | 3.63 | –

— PubChem BioAssay AID179 (DTP/NCI, 2004)
